Results from US10954214B2 (Janssen Pharmaceutica NV, priority 2016, dated 2021).

Assays:
TMD8 cells = test: 4-day proliferation assay, TMD8; type: cell-based; conditions: Homo sapiens, 96 h, 4 days incubation, CellTiterGLO, read-out: Anti-proliferation: TMD-8 IC50
Method: (§1) To assess anti-proliferative effects, MALT1 inhibitor test compounds were tested in 4-day proliferation assays using three different DLBCL cell lines.
(§2) Cells should be kept between 0.5-2.5 million cells per mL during culturing and cells should be supplemented every 2-3 days with fresh 50 μM beta-mercaptoenthanol. No beta-mercaptoethanol is used during the proliferation assay. OCI-Ly7 cells were propagated in IMDM (ThermoFisher) supplemented with 10% fetal bovine serum (HyClone), 2 mM L-glutamine (Sigma Aldrich) and 50 μg/mL Gentamycin. Cell passage numbers should not exceed 30 (for OCI-Ly3 cells with passage number lower than 10 were used).
(§3) 10,000 TMD8, 10,000 OCI-Ly3 or 2,000 OCI-Ly7 cells were seeded in 100 μL media per well and incubated for 4 days at 37° C. and 5% CO2. Cell plating numbers were chosen based on growth curves to ensure linear cell growth. After 4 days of incubation 50 μL CellTiterGLO reagent (Promega) were added to each well and luminescence was measured on the Envision after 10 min of incubation at room temperature.
(§4) LC=median of the low control values
(§5) An estimate of the slope of the plot in terms of the Hill coefficient was also obtained.

OCI-Ly3 cells = test: 4-day proliferation assay, OCI-Ly3; type: cell-based, human; conditions: Homo sapiens, 96 h, 4 days incubation, CellTiterGLO, read-out: Anti-proliferation: OCI-LY-3 IC50
Method: as §1, §2, §3, §4, §5

[1] = test system: IL10 secretion by TMD8 ABC-DLBCL cells; test: Human IL10 Mesoscale assay (TMD-8); type: cell-based; conditions: Homo sapiens, TMD8; TMD-8 cells, 24 h
In short: (§6)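 After 24 h at 37 °C with test compounds (15 μM down to 58.6 nM, 9 twofold steps, 0.3% DMSO), IL6 and IL10 secreted by 100,000 OCI-LY3 or TMD8 cells per well were measured in supernatants with a Mesoscale immunoassay. Data were scaled between DMSO wells (high) and RN486 treatment (low).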

[2] = target: full-length MALT1 protein (Strep-MALT1(1-824)-His) (Homo sapiens (Human), UniProt Q9UDY8); test: MALT1 Biochemical Protease Assay (Ac-LRSR-AMC substrate); conditions: 10 nM FL MALT1, 200 μM Ac-LRSR-AMC, 4 h at RT; read-out: MALT1_Biochemical activity (Ac-LRSR-amc) IC50
Chain of full-length MALT1 protein (Strep-MALT1(1-824)-His) (Q9UDY8 whole entry): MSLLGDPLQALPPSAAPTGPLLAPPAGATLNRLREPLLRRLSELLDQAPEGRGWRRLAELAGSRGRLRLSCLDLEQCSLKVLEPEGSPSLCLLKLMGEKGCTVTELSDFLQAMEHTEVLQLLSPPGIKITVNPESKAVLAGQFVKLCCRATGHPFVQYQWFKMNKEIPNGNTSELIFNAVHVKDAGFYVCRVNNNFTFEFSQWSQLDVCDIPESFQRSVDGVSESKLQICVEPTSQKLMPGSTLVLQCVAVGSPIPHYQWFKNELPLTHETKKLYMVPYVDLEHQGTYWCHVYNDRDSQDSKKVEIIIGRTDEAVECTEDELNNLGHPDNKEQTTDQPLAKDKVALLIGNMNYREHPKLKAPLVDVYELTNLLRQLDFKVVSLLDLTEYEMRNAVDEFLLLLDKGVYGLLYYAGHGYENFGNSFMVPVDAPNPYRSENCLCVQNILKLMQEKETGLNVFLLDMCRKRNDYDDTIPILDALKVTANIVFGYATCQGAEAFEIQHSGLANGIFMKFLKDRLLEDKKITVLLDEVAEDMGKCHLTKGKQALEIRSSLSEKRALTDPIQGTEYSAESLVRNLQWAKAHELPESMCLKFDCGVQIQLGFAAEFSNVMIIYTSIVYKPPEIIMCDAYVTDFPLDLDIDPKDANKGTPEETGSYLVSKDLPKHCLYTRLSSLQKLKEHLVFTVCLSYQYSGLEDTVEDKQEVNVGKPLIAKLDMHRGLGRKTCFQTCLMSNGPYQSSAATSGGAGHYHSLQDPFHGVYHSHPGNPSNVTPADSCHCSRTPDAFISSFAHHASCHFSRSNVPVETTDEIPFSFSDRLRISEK
In short: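 Full-length MALT1 pre-incubated with compounds (30 μM to 0.5 nM, 11 threefold steps) for 50 min at RT. After Ac-LRSR-AMC was added, the reaction ran 4 h at RT and AMC fluorescence was read. IC50 and Hill slope from curve fitting against no-enzyme and no-compound controls.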

[3] = test system: IL6 secretion by TMD8 ABC-DLBCL cells; test: Human IL6 Mesoscale assay (TMD-8); type: cell-based; conditions: Homo sapiens, TMD8; TMD-8 cells, 24 h
In short: as §6

| IC50 (OCI-Ly3 cells) [nM] | IC50 [1] [nM] | IC50 [2] [nM] | IC50 [3] [nM] | SMILES | IC50 (TMD8 cells) [nM] |
| --- | --- | --- | --- | --- | --- |
| 395 | 182 | 13 | 389 | Cc1nc(-n2nccn2)c(Cl)cc1NC(=O)c1cnn(-c2cncc3c(F)cccc23)c1C(F)(F)F [Cpd 123, N-(5-chloro-2-methyl-6-(2H-1,2,3-triazol-2-yl)pyridin-3-yl)-1-(8-fluoroisoquinolin-4-yl)-5-(trifluoromethyl)-1H-pyrazole-4-carboxamide] | 501 |
| 912 | 331 | 2040 | 331 | O=C(Nc1cnc(-n2nccn2)c(Cl)c1)c1cnn(-c2cccc3nc(Cl)ccc23)c1C(F)(F)F [Cpd 221, N-(5-chloro-6-(2H-1,2,3-triazol-2-yl)pyridin-3-yl)-1-(2-chloroquinolin-5-yl)-5-(trifluoromethyl)-1H-pyrazole-4-carboxamide] | 2570 |
| 2450 | 1380 | 372 | 1380 | COC(=O)c1cc(NC(=O)c2cnn(-c3cncc4ccccc34)c2C(F)(F)F)cc(Cl)n1 [Cpd 74, Methyl 6-chloro-4-(1-(isoquinolin-4-yl)-5-(trifluoromethyl)-1H-pyrazole-4-carboxamido)picolinate] | > 20000 |
| ~1150 | 1440 | 295 | 2040 | O=C(Nc1cnc(-c2nccs2)c(Cl)c1)c1cnn(-c2cncc3ccccc23)c1C(F)(F)F [compound 63, N-(5-chloro-6-(thiazol-2-yl)pyridin-3-yl)-1-(isoquinolin-4-yl)-5-(trifluoromethyl)-1H-pyrazole-4-carboxamide] | > 7940 |
| 3140 | 2510 | 35 | 7590 | O=C(Nc1cnc(-n2cc(CO)cn2)c(Cl)c1)c1cnn(-c2cccc3c(=O)[nH]ccc23)c1C(F)(F)F [Cpd 182, N-(5-chloro-6-(4-(hydroxymethyl)-1H-pyrazol-1-yl)pyridin-3-yl)-1-(1-oxo-1,2-dihydroisoquinolin-5-yl)-5-(trifluoromethyl)-1H-pyrazole-4-carboxamide] | 5250 |
| 337 | 132 | 32 | 331 | O=C(Nc1cnc(-n2nccn2)c(C(F)(F)F)c1)c1cnn(-c2cccc3ncccc23)c1C(F)(F)F [Cpd 146, N-(6-(2H-1,2,3-triazol-2-yl)-5-(trifluoromethyl)pyridin-3-yl)-1-(quinolin-5-yl)-5-(trifluoromethyl)-1H-pyrazole-4-carboxamide] | 1020 |
| 423 | 56 | 26 | 98 | N#Cc1cc(NC(=O)c2cnn(-c3nccc4ccsc34)c2C(F)(F)F)cnc1-n1nccn1 [Cpd 143, N-(5-cyano-6-(2H-1,2,3-triazol-2-yl)pyridin-3-yl)-1-(thieno[2,3-c]pyridin-7-yl)-5-(trifluoromethyl)-1H-pyrazole-4-carboxamide] | 9550 |
| ~1350 | 138 | 123 | 135 | CCOc1ncc(NC(=O)c2cnn(-c3cccc4ncccc34)c2C(F)(F)F)cc1C#N [Cpd 81, N-(5-cyano-6-ethoxypyridin-3-yl)-1-(quinolin-5-yl)-5-(trifluoromethyl)-1H-pyrazole-4-carboxamide] | 11500 |
| 516 | 2460 | 49 | 8320 | N#Cc1cc(NC(=O)c2cnn(-c3ccc(F)c4ccccc34)c2C(F)(F)F)cnc1-n1nccn1 [Cpd 312, N-(5-cyano-6-(2H-1,2,3-triazol-2-yl)pyridin-3-yl)-1-(4-fluoronaphthal-1-yl)-5-(trifluoromethyl)-1H-pyrazole-4-carboxamide] | 501 |
| 370 | 257 | 151 | 417 | O=C(Nc1cnc(-n2nccn2)c(Cl)c1)c1cnn(-c2cccc3[nH]ncc23)c1C(F)(F)F [Cpd 68, N-(5-Chloro-6-(2H-1,2,3-triazol-2-yl)pyridin-3-yl)-1-(1H-indazol-4-yl)-5-(trifluoromethyl)-1H-pyrazole-4-carboxamide] | ~19000 |
| 1720 | 1150 | 35 | 525 | N#Cc1cc(NC(=O)c2cnn(-c3ccc(F)c4nccn34)c2C(F)(F)F)cnc1-n1nccn1 [Cpd 204, N-(5-cyano-6-(2H-1,2,3-triazol-2-yl)pyridin-3-yl)-1-(8-fluoroimidazo[1,2-a]pyridin-5-yl)-5-(trifluoromethyl)-1H-pyrazole-4-carboxamide] | 5890 |
| 740 | 95 | 41 | 74 | Cn1ccc(-c2ncc(NC(=O)c3cnn(-c4cccc5ncccc45)c3C(F)(F)F)cc2C#N)n1 [Cpd 89, N-(5-cyano-6-(1-methyl-1H-pyrazol-3-yl)pyridin-3-yl)-1-(quinolin-5-yl)-5-(trifluoromethyl)-1H-pyrazole-4-carboxamide] | > 20000 |
| 7080 | 676 | 759 | 1050 | CN1CCN(C(=O)c2ncc(NC(=O)c3cnn(-c4cncc5ccccc45)c3C(F)(F)F)cc2C#N)CC1 [Cpd 96, N-(5-cyano-6-(4-methylpiperazine-1-carbonyl)pyridin-3-yl)-1-(isoquinolin-4-yl)-5-(trifluoromethyl)-1H-pyrazole-4-carboxamide] | ~15500 |
| 513 | 178 | 44 | 457 | O=C(Nc1cnc(-n2nccn2)c(Cl)c1)c1cnn(-c2cc[n+]([O-])c3ccccc23)c1C(F)(F)F [Cpd 405, 4-(4-((5-chloro-6-(2H-1,2,3-triazol-2-yl)pyridin-3-yl)carbamoyl)-5-(trifluoromethyl)-1H-pyrazol-1-yl)quinoline 1-oxide] | 4360 |
| 1010 | 46 | 20 | 58 | Nc1cnn(-c2ncc(NC(=O)c3cnn(-c4cccc5c(=O)[nH]ccc45)c3C(F)(F)F)cc2Cl)n1 [Cpd 134, N-(6-(4-amino-2H-1,2,3-triazol-2-yl)-5-chloropyridin-3-yl)-1-(1-oxo-1,2-dihydroisoquinolin-5-yl)-5-(trifluoromethyl)-1H-pyrazole-4-carboxamide] | 20000 |
| 3800 | 302 | 117 | 646 | CN1C(=O)COc2c(Cl)cc(NC(=O)c3cnn(-c4cccc5ncccc45)c3C(F)(F)F)cc21 [Cpd 95, N-(8-Chloro-4-methyl-3-oxo-3,4-dihydro-2H-benzo[b][1,4]oxazin-6-yl)-1-(quinolin-5-yl)-5-(trifluoromethyl)-1H-pyrazole-4-carboxamide] | ~7940 |
| 510 | 43 | 34 | 32 | N#Cc1cc(NC(=O)c2cnn(-c3cccc4ncccc34)c2C(F)(F)F)cnc1-n1nccn1 [Cpd 83, N-(5-cyano-6-(2H-1,2,3-triazol-2-yl)pyridin-3-yl)-1-(quinolin-5-yl)-5-(trifluoromethyl)-1H-pyrazole-4-carboxamide] | ~8320 |
| 1730 | 240 | 59 | 550 | COCc1cnn(-c2ncc(NC(=O)c3cnn(-c4cccc5ncccc45)c3C(F)(F)F)cc2Cl)n1 [Cpd 173, N-(5-chloro-6-(4-(methoxymethyl)-2H-1,2,3-triazol-2-yl)pyridin-3-yl)-1-(quinolin-5-yl)-5-(trifluoromethyl)-1H-pyrazole-4-carboxamide] | 2690 |
| 520 | 135 | 21 | 98 | N#Cc1cc(NC(=O)c2cnn(-c3nccc4sccc34)c2C(F)(F)F)cnc1-n1nccn1 [Cpd 90, N-(5-cyano-6-(2H-1,2,3-triazol-2-yl)pyridin-3-yl)-1-(thieno[3,2-c]pyridin-4-yl)-5-(trifluoromethyl)-1H-pyrazole-4-carboxamide] | ~3890 |
| 776 | 2340 | 22 | 2510 | N#Cc1cc(NC(=O)c2cnn(-c3cnc(N)c4ccccc34)c2C(F)(F)F)cnc1-n1nccn1 [Cpd 156, 1-(1-aminoisoquinolin-4-yl)-N-(5-cyano-6-(2H-1,2,3-triazol-2-yl)pyridin-3-yl)-5-(trifluoromethyl)-1H-pyrazole-4-carboxamide] | 5250 |
